Data: US10226409B2, “Pyruvate and related α-keto carboxylates as novel adjuvants in the treatment of post tooth whitening sensitivity and the tissue protective effect of pyruvate on the oral soft tissue” (priority 2016, dated 2019)

Assays:
[1] = In-office laser tooth whitening, desensitizer applied post treatment: tooth sensitivity; type: in vivo, human; settings: for duration of tooth sensitivity: confirmed by follow up phone calls; for subjects experiencing tooth sensitivity after application of the desensitizer: 5 subjects per group
Text: In-office laser tooth whitening procedure using Biolase EZ lase, 7W diode laser, and the LaserWhite *20 whitening gel kit.
A total of 15 candidates were selected and screened (for the presence of active decay, faulty restorations, cervical abrasion and attrition, enamel cracks) for the whitening procedure.
The arch has been divided in 4 quadrants, K1 (upper right), K2 (upper left), K3 (lower left), K4 (lower right).
The amount of 400 Jules has been applied per quadrant per application, in two separate applications. (total of 800 Jules per quadrant).
The candidates were assigned to 3 groups.
Group 1 is considered the control (C1), receiving desensitizer (post treatment) containing potassium nitrate.
Group 2, a second control group (C2), received as desensitizer (post treatment) stannous fluoride.
Group 3 (C3) received as desensitizer sodium pyruvate 99% in crystalline form. (applied over the gingival, gingival margin and DEJ).

[2] = Gingival lesions after tooth whitening, treated only with sodium pyruvate; type: in vivo, human
Text: In addition, overall 6 patients presented with gingival lesions, manifested by burning sensation on the gingival margin, and visually expressed by white areas on the gingival margin.

[3] = R. Bünger et al., unpublished observations; cited from earlier work
[4] = cited from earlier work
[5] = test system: mammalian cellular systems; settings: applied exogenously in concentrations up to about 10 mM, short term studies; cited from earlier work
[6] = test system: human and bovine endothelial cells; settings: cited from earlier work
[7] = test system: isolated liver mitochondria; settings: 1 mM pyruvate; cited from earlier work
[8] = test system: isolated cardiomyocytes; settings: 1-10 millimolar; cited from earlier work
[9] = test system: oxidative stress; settings: cited from earlier work
[10] = intracoronary; cited from earlier work
[11] = cardioplegia; cited from earlier work

[F][Sn][F] [stannous fluoride]
duration of tooth sensitivity [1]: over 24 hours | members of the group experiencing tooth sensitivity ([1]; end of whitening procedure): 100%

[13CH3][13C](=O)C(=O)[O-].[Na+] [sodium pyruvate, α-Ketopropionic acid-2,3-13C2 sodium salt]
duration of tooth sensitivity [1]: ≤ 24 h | subjects experiencing tooth sensitivity after application of the desensitizer ([1]; end of whitening procedure): 1 of 5 | burning sensation on the gingival margin ([2]; 6 patients with gingival lesions, treated only with sodium pyruvate): immediate relieve of the burning sensation | visual inspection of the gingiva ([2]; previously discolored (white) site on the gingival margin): normal appearance of the gingiva | stability [3]: relative stability | water solubility [3]: high water solubility

O=[N+]([O-])[O-].[K+] [potassium nitrate]
duration of tooth sensitivity [1]: up to 24 hours | subjects experiencing tooth sensitivity after application of the desensitizer ([1]; end of whitening procedure): 3 out of 5

CC(=O)C(=O)O [pyruvate]
rate constant of scavenging of peroxynitrite ([4]; pH 7.4, 37° C.): 88 to 100 mol⁻¹ s⁻¹ | reaction with peroxynitrite faster than with H2O2 ([4]; physiological pyruvate anion): about 40 times | speed of reaction with peroxynitrite relative to that with H2O2 ([4]; pyruvate decarboxylates to acetate): about one order of magnitude faster | cytotoxicity [5]: virtually no or little cytotoxicity | bc1-2/bax ratio ([6]; 30 min pulse of 0.5 mM H2O2): increasing the bc1-2/bax ratio | cellular glutathione pool ([6]; 30 min pulse of 0.5 mM H2O2): stabilizing the cellular glutathione pool | cellular viability and survival ([6]; 30 min pulse of 0.5 mM H2O2): dose-dependently enhanced cellular viability and survival | phosphorylated p38 mitogen activated kinase ([6]; H2O2-treated endothelial cells): prevented the accumulation of phosphorylated p38 mitogen activated kinase | phosphorylation of ERK1/2 ([6]; H2O2-treated endothelial cells): transiently increased phosphorylation of ERK1/2 | dissociation of cytochrome C [7]: prevented the dissociation of cytochrome C | expression of antiapoptotic bc1-2 [7]: enhanced expression of antiapoptotic bc1-2 | mitochondrial respiration [7]: stabilized respiration | calcium transients [8]: improves the calcium transients | cytotoxicity [8]: without apparent cytotoxicity | mitochondrial stability and mitochondrial Δϕ [8]: increases mitochondrial stability and mitochondrial Δϕ | pyruvate level of optimum efficacy [9]: 2 to 5 mM | pyruvate level required for beneficial effects [9]: ≥ 0.5 mM | efficacy [10]: beneficial efficacy | toxicity [10]: no obvious toxicity | mortality and morbidity [11]: reduced mortality and morbidity
